Reference: article PMC4207896, “Cytotoxic Benzophenanthridine and Furoquinoline Alkaloids from Zanthoxylum buesgenii (Rutaceae)” (Chemistry Central Journal, 2014)
Where two headings read alike, the source gives them in different places.

Experiments:
Type in all cases: cell-based
CCRF-CEM leukemia cells = assay: Resazurin reduction cytotoxicity assay, CCRF-CEM; details: Homo sapiens, 72 h, read-out: IC50 values
Description: (§1) The resazurin reduction assay was performed to assess the cytotoxicity of compounds and doxorubicin as control drug towards various sensitive and drug-resistant cancer cell lines, including the CCRF-CEM and CEM/ADR5000 leukemia, MDA-MB231 breast cancer cells and its resistant subline MDA-MB231/BCRP, HCT116p53^+/+ colon cancer cells and its resistant subline HCT116p53^−/−, U87MG glioblastoma cells and its resistant subline U87MG. ΔEGFR and HepG2 hepatocarcinoma cells and normal AML12 hepatocytes. The assay is based on the reduction of the indicator dye, resazurin, to the highly fluorescent resorufin by viable cells. […] Briefly, adherent cells were detached by treatment with 0.25% trypsin/EDTA (Invitrogen, Darmstadt Germany) and an aliquot of 1 × 10^4 cells was placed in each well of a 96-well cell culture plate (Thermo Scientific, Langenselbold, Germany) in a total volume of 200 μL. Cells were allowed to attach overnight and then were treated with different concentrations of compounds. For suspension cells, aliquots of 2 × 10^4 cells per well were seeded in 96-well-plates in a total volume of 100 μL. The studied compounds were immediately added in varying concentrations in an additional 100 μL of culture medium to obtain a total volume of 200 μL/well. After 72 h, resazurin (Sigma-Aldrich, Schnelldorf, Germany) (20 μL, 0.01% w/v) in distilled H2O was added to each well and the plates were incubated at 37°C for 4 h. Fluorescence was measured on an Infinite M2000 ProTM plate reader (Tecan, Crailsheim, Germany) using an excitation wavelength of 544 nm and an emission wavelength of 590 nm. Each assay was done at least twice with six replicates each. The viability was evaluated based on a comparison with untreated cells. IC50 values represent the compound concentrations required to inhibit 50% of cell proliferation and were calculated from a calibration curve by linear regression using Microsoft Excel.

[1] = tested on: CEM/ADR5000 leukemia cells; assay: Resazurin reduction cytotoxicity assay, CEM/ADR5000; details: Homo sapiens, read-out: IC50 values
Description: as §1

[2] = tested on: MDA-MB231 breast cancer cells; assay: Resazurin reduction cytotoxicity assay, MDA-MB231; details: Homo sapiens, read-out: IC50 values
Description: as §1

MDA-MB231/BCRP cells = assay: Resazurin reduction cytotoxicity assay, MDA-MB231/BCRP; details: MDA-MB-231/BCRP, 72 h, read-out: IC50 values
Description: as §1

[3] = tested on: HCT116 (p53+/+) colon cancer cells; assay: Resazurin reduction cytotoxicity assay, HCT116 (p53+/+); details: Homo sapiens, read-out: IC50 values
Description: as §1

[4] = tested on: HCT116 (p53-/-) colon cancer cells; assay: Resazurin reduction cytotoxicity assay, HCT116 (p53-/-); details: Homo sapiens, read-out: IC50 values
Description: as §1

U87MG glioblastoma cells = assay: Resazurin reduction cytotoxicity assay, U87MG; details: Homo sapiens, U-87 MG, 72 h, read-out: IC50 values
Description: as §1

U87MG. ΔEGFR cells = assay: Resazurin reduction cytotoxicity assay, U87MG.ΔEGFR; details: Homo sapiens, U-87 MG, 72 h, read-out: IC50 values
Description: as §1

[5] = tested on: HepG2 hepatocarcinoma cells; assay: Resazurin reduction cytotoxicity assay, HepG2; details: Homo sapiens, read-out: IC50 values
Description: as §1

normal AML12 hepatocytes = assay: Resazurin reduction cytotoxicity assay, normal AML12 hepatocytes; details: Mus musculus, read-out: IC50 values
Description: as §1

[6] = tested on: nine tested cancer cell lines; assay: Resazurin reduction cytotoxicity assay, panel of nine cancer cell lines; details: all nine cancer cell lines, 72 h, read-out: IC50 values towards all the nine tested cancer cell lines
Description: as §1, with “The studied compounds were immediately added in varying concentrations in an additional 100 μL of culture medium to obtain a total volume of 200 μL/well. After 72 h, resazurin (Sigma-Aldrich, Schnelldorf, Germany) (20 μL, 0.01% w/v) in distilled H2O was added to each well and the plates were incubated at 37°C for 4 h.” left out, “Each assay was done at least twice with six replicates each.” left out, “IC50 values represent the compound concentrations required to inhibit 50% of cell proliferation and were calculated from a calibration curve by linear regression using Microsoft Excel.” left out

[7] = CCRF-CEM leukemia (sensitive), resazurin assay
[8] = CEM/ADR5000 leukemia (resistant), resazurin assay, 72 h
[9] = MDA-MB-231, MDA-MB231 breast cancer cells, resazurin assay, 72 h
[10] = MDA-MB231/BCRP resistant subline, resazurin assay
[11] = U87MG glioblastoma cells, resazurin assay
[12] = U87MG. ΔEGFR resistant subline, resazurin assay
[13] = HepG2 hepatocarcinoma cells, resazurin assay, 72 h
[14] = normal AML12 hepatocytes, resazurin assay, 72 h

SMILES	IC50 (CCRF-CEM leukemia cells; [7])	IC50 [1, 8]	IC50 [2, 9]	IC50 (MDA-MB231/BCRP cells; [10])	IC50 (U87MG glioblastoma cells; [11])	IC50 (U87MG. ΔEGFR cells; [12])	IC50 [5, 13]	IC50 (normal AML12 hepatocytes; [14])	IC50 (CCRF-CEM leukemia cells; CCRF-CEM)	IC50 ([1]; ADR5000, 72 h)	IC50 ([2]; MDA-MB-231, 72 h)	IC50 (MDA-MB231/BCRP cells)	IC50 ([3]; HCT-116, 72 h)	IC50 ([4]; HCT-116, 72 h)	IC50 (U87MG glioblastoma cells)	IC50 (U87MG. ΔEGFR cells)	IC50 ([5]; HepG2, 72 h)	IC50 (normal AML12 hepatocytes; AML12, 72 h)	other results
COc1c(O)ccc2c1C(O)N(C)c1c-2ccc2cc3c(cc12)OCO3 (stereo not drawn) [Compound 1, 1-methoxy-12-methyl-12,13-dihydro-[1,3]dioxolo[4′,5′:4,5]benzo[1,2-c]phenanthridine-2,13-diol]	0.24 ± 0.01 µM	31.6 ± 3.48 µM	30.1 ± 4.12 µM	65 ± 5.37 µM	60.6 ± 7.29 µM	61.8 ± 4.68 µM	22.4 ± 1.97 µM	> 107 µM	–	–	–	–	–	–	–	–	–	–	IC50 ([3]; HCT-116, HCT116 (p53+/+) colon cancer cells, resazurin assay, 72 h): 42.5 ± 3.22 µM; IC50 ([4]; HCT-116, HCT116 (p53-/-) resistant subline, resazurin assay, 72 h): 62.3 ± 4.41 µM; IC50 [6]: ≤ 65 µM
COc1c(O)ccc2c1c[n+](C)c1c3cc4c(cc3ccc21)OCO4 [Compound 2, isofagaridine]	–	–	–	–	–	–	–	–	0.3 ± 0.04 µM	20.4 ± 2.16 µM	41.4 ± 3.44 µM	114 ± 9.82 µM	87.1 ± 7.55 µM	> 120 µM	105 ± 9.16 µM	115 ± 13.8 µM	26.7 ± 3.15 µM	> 120 µM	–
COc1c2cc3c(cc2nc2occc12)OCO3 [Compound 3, maculine]	–	–	–	–	–	–	–	–	89.1 ± 6.22 µM	63.1 ± 3.75 µM	> 165 µM	> 165 µM	> 165 µM	> 165 µM	> 165 µM	> 165 µM	> 165 µM	> 165 µM	–
COc1cc2nc3occc3c(OC)c2cc1OC [Compound 4, kokusaginine]	–	–	–	–	–	–	–	–	49.8 ± 5.04 µM	44.6 ± 3.92 µM	62 ± 7.24 µM	> 154 µM	120 ± 13.1 µM	> 154 µM	70.1 ± 6.4 µM	> 154 µM	90.8 ± 8.86 µM	> 154 µM	–
COc1cccc2c1C(=O)c1c(O)c3c(c(O)c1C2=O)C[C@@](O)(C(=O)CO)C[C@@H]3O[C@H]1C[C@H](N)[C@H](O)[C@H](C)O1 [Doxorubicin, doxorubicin, reference compound]	0.2 ± 0.06 µM	195 ± 14.3 µM	1.1 ± 0.28 µM	7.83 ± 0.47 µM	1.06 ± 0.15 µM	6.11 ± 0.57 µM	3.83 ± 0.94 µM	> 73.6 µM	–	–	–	–	1.41 ± 0.29 µM	4.06 ± 0.07 µM	–	–	–	–	–
